Data from patent US10144742B2 (Millennium Pharmaceuticals, Inc., priority 2014, dated 2018).
pIC50: −log10 of the molar value. Where two headings read alike, the source gives them in different places.

Experiments:
[1] = tested on: PC3 cells; experiment: PC3 growth inhibition (Cell-titer glo, 72 hours); assay type: cell-based; conditions: Homo sapiens, read-out: Percent Inhibition (PC3 growth inhibition); for inhibition at 1.667 µM: compound concentration 1.667 μM
Outline: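 Compounds in AIM serum-free medium were applied for 72 h at 37 °C, 5% CO2 to PC3 cells plated overnight from RPMI1640 culture. Luminescence after 10 min CellTiter-Glo, normalised to DMSO, gave % viability at 1 μM or 1.667 μM, or GI50/LD50.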

[2] = molecular target: hNAMPT protein (Homo sapiens (Human), UniProt P43490); experiment: NAMPT enzyme assay (TR-FRET/HTRF, BodiPY ligand, anti 6His-Tb); assay type: binding; conditions: for inhibition at 1 µM: read-out: Percent Inhibition
Chain of hNAMPT protein (P43490 whole entry): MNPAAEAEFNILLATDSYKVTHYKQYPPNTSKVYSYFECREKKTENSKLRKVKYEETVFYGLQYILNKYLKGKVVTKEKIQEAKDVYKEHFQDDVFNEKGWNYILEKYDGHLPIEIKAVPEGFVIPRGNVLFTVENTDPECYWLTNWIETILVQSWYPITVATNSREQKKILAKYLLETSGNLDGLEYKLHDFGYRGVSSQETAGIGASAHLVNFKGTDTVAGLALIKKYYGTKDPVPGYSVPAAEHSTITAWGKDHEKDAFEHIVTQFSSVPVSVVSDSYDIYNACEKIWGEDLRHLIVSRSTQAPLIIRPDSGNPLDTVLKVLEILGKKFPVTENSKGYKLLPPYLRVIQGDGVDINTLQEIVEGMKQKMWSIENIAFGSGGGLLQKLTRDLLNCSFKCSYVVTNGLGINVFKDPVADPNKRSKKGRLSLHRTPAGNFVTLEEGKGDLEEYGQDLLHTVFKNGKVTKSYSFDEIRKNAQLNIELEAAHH
Outline: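 Compound or DMSO was incubated for 1 h at room temperature, protected from light, with BodiPY ligand and hNAMPT labelled by terbium anti-6His antibody. The 520 nm to 486 nm emission ratio after 320 nm excitation gave inhibition versus vehicle, from which concentration-response curves yielded IC50.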

[3] = PC-3, compound concentration 1 μM, PC3 cells, 72 hours, Cell-titer glo
[4] = NAMPT IC50 range class, read-out: IC50
[5] = PC-3, PC3 cells, 72 hours, Cell-titer glo

Row | SMILES | inhibition at 1 µM ([1]; PC-3, 72 h) | pIC50 [2] | inhibition at 1 µM [2] | inhibition at 1 µM [1, 3] | pIC50 [2, 4] | inhibition at 1 µM ([2]; compound concentration 1 μM) | inhibition at 1.667 µM [1, 5]
1 | O=C(NCCCn1ccnc1)c1ccc2nc(Nc3ccccc3)c(-c3ccccc3)nc2c1 [Compound I-233, 2-Anilino-N-[3-(1H-imidazol-1-yl)propyl]-3-phenylquinoxaline-6-carboxamide] | -8% | 5.00 to 5.70 | 43% |  |  |  | 
2 | Cn1ccnc1CCCNC(=O)c1ccc2nc(-c3ccc(F)cc3)c(-c3ccc(F)cc3)nc2c1 [Compound I-234, 2,3-bis(4-fluorophenyl)-N-[3-(1-methyl-1H-imidazol-2-yl)propyl]quinoxaline-6-carboxamide] |  |  |  | 41% | > 7.00 | 100% | 
3 | NC(=O)c1cccc(-c2nc3ccc(C(=O)NCCCn4ccnc4)cc3nc2-c2ccccc2)c1 [Compound I-235, 2-(3-carbamoylphenyl)-N-[3-(1H-imidazol-1-yl)propyl]-3-phenylquinoxaline-6-carboxamide] |  |  |  | -8% | 6.30 to 7.00 | 79% | 
4 | O=C(NCCCn1ccnc1)c1ccc2nc(-c3ccccc3)c(-c3cccs3)nc2c1 [Compound I-236, N-[3-(1H-imidazol-1-yl)propyl]-2-phenyl-3-(2-thienyl)quinoxaline-6-carboxamide] |  |  |  | 1% | > 7.00 | 99% | 
5 | O=C(NCCn1cncn1)c1ccc2nc(-c3ccc(F)cc3)c(-c3ccc(F)cc3)nc2c1 [Compound I-237, 2,3-bis(4-fluorophenyl)-N-[2-(1H-1,2,4-triazol-1-yl)ethyl]quinoxaline-6-carboxamide] |  |  |  | 96% | 5.00 to 5.70 | 21% | 
6 | O=C(NCCc1cn2c(n1)SCC2)c1ccc2nc(-c3ccc(F)cc3)c(-c3ccc(F)cc3)nc2c1 [Compound I-238, N-[2-(2,3-dihydroimidazo[2,1-b][1,3]thiazol-6-yl)ethyl]-2,3-bis(4-fluorophenyl)quinoxaline-6-carboxamide] |  |  |  | 96% | 5.00 to 5.70 | 19% | 
7 | CC(C)(C)OC(=O)N1CCC(C2CCN(c3nc4ccc(C(=O)NCCn5ccnc5)cc4nc3-c3ccccc3)CC2)CC1 [Compound I-239, tert-Butyl 1′-(6-{[2-(1H-imidazol-1-yl)ethyl]carbamoyl}-3-phenylquinoxalin-2-yl)-4,4′-bipiperidine-1-carboxylate] |  |  |  | 14% | 5.00 to 5.70 | 25% | 
8 | O=C(NCCCn1ccnc1)c1ccc2nc(C3=CCCCC3)c(-c3ccccc3)nc2c1 [Compound I-240, 2-(cyclohex-1-en-1-yl)-N-[3-(1H-imidazol-1-yl)propyl]-3-phenylquinoxaline-6-carboxamide] |  |  |  | -8% | 6.30 to 7.00 | 83% | 
9 | COc1ccc(-c2nc3cc(C(=O)NCCCn4ccnc4)ccc3nc2-c2ccccc2)cc1 [Compound I-241, N-[3-(1H-imidazol-1-yl)propyl]-3-(4-methoxyphenyl)-2-phenylquinoxaline-6-carboxamide] |  |  |  | 1% | 6.00 to 6.30 | 57% | 
10 | O=C(NCCCn1ccnc1)c1ccc2nc(-c3cncnc3)c(-c3ccccc3)nc2c1 [Compound I-242, N-[3-(1H-imidazol-1-yl)propyl]-3-phenyl-2-(pyrimidin-5-yl)quinoxaline-6-carboxamide] |  |  |  | -7% | 5.70 to 6.00 | 45% | 
11 | O=C(NCCCn1ccnc1)c1ccc2nc(N3CCC4(COC4)C3)c(-c3ccccc3)nc2c1 [Compound I-243, N-[3-(1H-imidazol-1-yl)propyl]-2-(2-oxa-6-azaspiro[3.4]oct-6-yl)-3-phenylquinoxaline-6-carboxamide] |  |  |  | -6% | 6.00 to 6.30 | 62% | 
12 | O=C(c1ccc2nc(-c3ccc(F)cc3)c(-c3ccc(F)cc3)nc2c1)N1CCc2cn[nH]c2C1 [Compound I-244, [2,3-bis(4-fluorophenyl)quinoxalin-6-yl](1,4,5,7-tetrahydro-6H-pyrazolo[3,4-c]pyridin-6-yl)methanone] |  |  |  | 96% | 5.00 to 5.70 | 33% | 
13 | COc1cc(OC)cc(-c2nc3cc(C(=O)NCCCn4ccnc4)ccc3nc2-c2ccccc2)c1 [Compound I-245, 3-(3,5-dimethoxyphenyl)-N-[3-(1H-imidazol-1-yl)propyl]-2-phenylquinoxaline-6-carboxamide] |  |  |  | -8% | 6.00 to 6.30 | 62% | 
14 | O=C(NCCCn1ccnc1)c1ccc2nc(-c3cccs3)c(-c3ccccc3)nc2c1 [Compound I-247, N-[3-(1H-imidazol-1-yl)propyl]-3-phenyl-2-(2-thienyl)quinoxaline-6-carboxamide] |  |  |  | -5% | 6.00 to 6.30 | 58% | 
15 | CC(=O)Nc1cccc(-c2nc3cc(C(=O)NCCCn4ccnc4)ccc3nc2-c2ccccc2)c1 [Compound I-248, 3-(3-acetamidophenyl)-N-[3-(1H-imidazol-1-yl)propyl]-2-phenylquinoxaline-6-carboxamide] |  |  |  | 2% | 5.00 to 5.70 | 29% | 
16 | O=C(NCCCn1ccnc1)c1ccc2nc(N3CCN4C(=O)CCC4C3)c(-c3ccccc3)nc2c1 (stereo not drawn) [Compound I-250, N-[3-(1H-imidazol-1-yl)propyl]-2-(6-oxohexahydropyrrolo[1,2-a]pyrazin-2(1H)-yl)-3-phenylquinoxaline-6-carboxamide] |  |  |  | -6% | 6.30 to 7.00 | 86% | 
17 | O=C(NCCCn1ccnc1)c1ccc2nc(-c3ccccc3)c(-c3ccncc3)nc2c1 [Compound I-251, N-[3-(1H-imidazol-1-yl)propyl]-2-phenyl-3-(pyridin-4-yl)quinoxaline-6-carboxamide] |  |  |  | 1% | 6.30 to 7.00 | 65% | 
18 | O=C(NCCCn1ccnc1)c1ccc2nc(-c3ccccc3)c(-c3ccc4c(c3)CCO4)nc2c1 [Compound I-252, 3-(2,3-dihydro-1-benzofuran-5-yl)-N-[3-(1H-imidazol-1-yl)propyl]-2-phenylquinoxaline-6-carboxamide] |  |  |  | 2% | 6.00 to 6.30 | 53% | 
19 | CC(C)Oc1nc2ccc(C(=O)NCCCc3ncc[nH]3)cc2nc1-c1ccc(F)cc1 [Compound I-253, 3-(4-Fluorophenyl)-N-[3-(1H-imidazol-2-yl)propyl]-2-isopropoxyquinoxaline-6-carboxamide] |  |  | 93% |  | > 7.00 |  | 2%
20 | CC(=O)Nc1ccc(-c2nc3ccc(C(=O)NCCCn4ccnc4)cc3nc2-c2ccccc2)cc1 [Compound I-254, 2-(4-acetamidophenyl)-N-[3-(1H-iniidazol-1-yl)propyl]-3-phenylquinoxaline-6-carboxamide] |  |  |  | -8% | 6.30 to 7.00 | 84% | 
21 | O=C(NCCCc1ncc[nH]1)c1ccc2nc(N3CCC(N4CCOCC4)CC3)c(-c3ccc(Cl)cc3)nc2c1 [Compound I-255, 3-(4-chlorophenyl)-N-[3-(1H-imidazol-2-yl)propyl]-2-[4-(morpholin-4-yl)piperidin-1-yl]quinoxaline-6-carboxamide] |  |  |  |  | > 7.00 | > 99% | 2%
22 | O=C(NCCCc1ncc[nH]1)c1ccc2nc(N3CCSCC3)c(-c3ccc(F)cc3)nc2c1 [Compound I-256, 3-(4-fluorophenyl)-N-[3-(1H-imidazol-2-yl)propyl]-2-(thiomorpholin-4-yl)quinoxaline-6-carboxamide] |  |  |  |  | > 7.00 | 97% | 2%
23 | O=C(NCCCn1ccnc1)c1ccc2nc(-c3ccccc3Cl)c(-c3ccccc3)nc2c1 [Compound I-257, 2-(2-chlorophenyl)-N-[3-(1H-imidazol-1-yl)propyl]-3-phenylquinoxaline-6-carboxamide] |  |  |  | -8% | 6.30 to 7.00 | 77% | 
24 | O=C(NCCCn1ccnc1)c1ccc2nc(-c3ccc4nccn4c3)c(-c3ccccc3)nc2c1 [Compound I-258, N-[3-(1H-imidazol-1-yl)propyl]-2-(imidazo[1,2-a]pyridin-6-yl)-3-phenylquinoxaline-6-carboxamide] |  |  |  | -8% | 6.30 to 7.00 | 67% | 
25 | CN1CCN(Cc2nc3ccc(C(=O)NCCCn4ccnc4)cc3nc2-c2ccccc2)CC1 [Compound I-259, N-[3-(1H-imidazol-1-yl)propyl]-2-[(4-methylpiperazin-1-yl)methyl]-3-phenylquinoxaline-6-carboxamide] |  |  |  | -7% | 5.70 to 6.00 | 44% | 
26 | O=C(NCCCn1ccnc1)c1ccc2nc(-c3ccccc3)c(-c3ccccc3)nc2c1 [Compound I-261, N-[3-(1H-imidazol-1-yl)propyl]-2,3-diphenylquinoxaline-6-carboxamide] |  |  |  | -1% | 6.30 to 7.00 | 67% | 
27 | O=C(NCCCn1ccnc1)c1ccc2nc(N3CCCCCC3)c(-c3ccccc3)nc2c1 [Compound I-262, 2-(azepan-1-yl)-N-[3-(1H-imidazol-1-yl)propyl]-3-phenylquinoxaline-6-carboxamide] |  |  |  | -7% | > 7.00 | 91% | 
28 | NC(=O)c1cccc(-c2nc3cc(C(=O)NCCCn4ccnc4)ccc3nc2-c2ccccc2)c1 [Compound I-263, 3-(3-carbamoylphenyl)-N-[3-(1H-imidazol-1-yl)propyl]-2-phenylquinoxaline-6-carboxamide] |  |  |  | 1% | 6.30 to 7.00 | 81% | 
